Measured values published in the supplement of paper PMC9663587.

Tests used:
Paclitaxel = compound: CC(=O)O[C@H]1C(=O)[C@@]2(C)[C@H]([C@H](OC(=O)c3ccccc3)[C@]3(O)C[C@H](OC(=O)[C@H](O)[C@@H](NC(=O)c4ccccc4)c4ccccc4)C(C)=C1C3(C)C)[C@]1(OC(C)=O)CO[C@@H]1C[C@@H]2O [Paclitaxel]
BSJ-03-123 [1] = compound: T1, CC(=O)c1c(C)c2cnc(Nc3ccc(N4CCN(CCOCCOCCOCCNC(=O)COc5cccc6c5C(=O)N(C5CCC(=O)NC5=O)C6=O)CC4)cn3)nc2n(C2CCCC2)c1=O [BSJ-03-123]
INK128/MLN0128 = compound: CC(C)n1nc(-c2ccc3oc(N)nc3c2)c2c(N)ncnc21 [INK128/MLN0128]
Neratinib/HKI272 [2] = compound: T2, CCOc1cc2ncc(C#N)c(Nc3ccc(OCc4ccccn4)c(Cl)c3)c2cc1NC(=O)/C=C/CN(C)C [Neratinib/HKI272]
Volasertib/BI6727 = compound: CC[C@@H]1C(=O)N(C)c2cnc(Nc3ccc(C(=O)N[C@H]4CC[C@H](N5CCN(CC6CC6)CC5)CC4)cc3OC)nc2N1C(C)C [Volasertib/BI6727]
LEE011/Ribociclib [3] = compound: T3, CN(C)C(=O)c1cc2cnc(Nc3ccc(N4CCNCC4)cn3)nc2n1C1CCCC1 [LEE011/Ribociclib]
THZ531 = compound: CN(C)C/C=C/C(=O)Nc1ccc(C(=O)N2CCC[C@@H](Nc3ncc(Cl)c(-c4c[nH]c5ccccc45)n3)C2)cc1 [THZ531]
ABT-737 = compound: CN(C)CC[C@H](CSc1ccccc1)Nc1ccc(S(=O)(=O)NC(=O)c2ccc(N3CCN(Cc4ccccc4-c4ccc(Cl)cc4)CC3)cc2)cc1[N+](=O)[O-] [ABT-737]
[4] = compound: COc1ccc2c(c1)[C@]1(C[C@H]1c1ccc3c(/C=C/c4ccc(CN5C[C@@H](C)O[C@@H](C)C5)cc4)n[nH]c3c1)C(=O)N2
Pictilisib/GDC0941 = compound: CS(=O)(=O)N1CCN(Cc2cc3nc(-c4cccc5[nH]ncc45)nc(N4CCOCC4)c3s2)CC1 [Pictilisib/GDC0941]
Ceritinib/LDK378 = compound: Cc1cc(Nc2ncc(Cl)c(Nc3ccccc3S(=O)(=O)C(C)C)n2)c(OC(C)C)cc1C1CCNCC1 [Ceritinib/LDK378]
Taselisib/GDC0032 = compound: Cc1nc(-c2cn3c(n2)-c2ccc(-c4cnn(C(C)(C)C(N)=O)c4)cc2OCC3)n(C(C)C)n1 [Taselisib/GDC0032]
Tivantinib/ARQ197 = compound: O=C1NC(=O)[C@@H](c2cn3c4c(cccc24)CCC3)[C@@H]1c1c[nH]c2ccccc12 [Tivantinib/ARQ197]
YKL-5-124 = compound: C=CC(=O)Nc1ccc(C(=O)Nc2[nH]nc3c2CN(C(=O)N[C@H](CN(C)C)c2ccccc2)C3(C)C)cc1 [YKL-5-124]; test: GR value, 72 h; higher = faster growth (1 = untreated, <0 = killing);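 note: breast cancer and non-malignant breast epithelial lines, nine half-log doses, viable cells counted by Hoechst and LIVE/DEAD dye imaging versus time-zero plates and DMSO controls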
BSJ-03-123 [5] = compound: T1, BSJ-03-123; test: as above
[6] = compound: CCN1CCN(Cc2ccc(Nc3ncc(F)c(-c4cc(F)c5nc(C)n(C(C)C)c5c4)n3)nc2)CC1; test: as above
Neratinib/HKI272 [7] = compound: T2, Neratinib/HKI272; test: as above
[8] = compound: CCc1cnn2c(NCc3ccc[n+]([O-])c3)cc(N3CCCC[C@H]3CCO)nc12; test: as above
LEE011/Ribociclib [9] = compound: T3, LEE011/Ribociclib; test: as above
[10] = compound: CCN1CCN(Cc2ccc(Nc3ncc(F)c(-c4cc(F)c5nc(C)n(C(C)C)c5c4)n3)nc2)CC1
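Throughout, for GR50, 72 h: breast cancer and non-malignant breast epithelial cell lines, Deep Dye Drop or Dye Drop imaging, nine half-log doses, GR normalized to time-zero plates and DMSO-only controls.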

## BT474
Paclitaxel
  GR50, 72 h: 0.00412 µM
BSJ-03-123 [1]
  GR50, 72 h: 0.235 µM
INK128/MLN0128
  GR50, 72 h: 0.00873 µM
Neratinib/HKI272 [2]
  GR50, 72 h: 0.00166 µM
Volasertib/BI6727
  GR50, 72 h: 0.00821 µM
LEE011/Ribociclib [3]
  GR50, 72 h: > 10 µM
THZ531
  GR50, 72 h: 0.0537 µM
ABT-737
  GR50, 72 h: 5.21 µM
[4]
  GR50, 72 h: 0.0122 µM
Pictilisib/GDC0941
  GR50, 72 h: 0.188 µM
Ceritinib/LDK378
  GR50, 72 h: > 10 µM
Taselisib/GDC0032
  GR50, 72 h: 0.00452 µM
Tivantinib/ARQ197
  GR50, 72 h: 0.551 µM
YKL-5-124; 0.001 µM
  GR value: 0.506 GR
YKL-5-124; 0.003162 µM
  GR value: 0.225 GR
YKL-5-124; 0.01 µM
  GR value: 0.197 GR
YKL-5-124; 0.03162 µM
  GR value: 0.179 GR
YKL-5-124; 0.1 µM
  GR value: -0.0193 GR
YKL-5-124; 0.3162 µM
  GR value: -0.106 GR
YKL-5-124; 1 µM
  GR value: -0.16 GR
YKL-5-124; 3.162 µM
  GR value: -0.0451 GR
YKL-5-124; 10 µM
  GR value: -0.519 GR
BSJ-03-123 [5]; 0.001 µM
  GR value: 1.01 GR
BSJ-03-123 [5]; 0.003162 µM
  GR value: 0.599 GR
BSJ-03-123 [5]; 0.01 µM
  GR value: 0.685 GR
BSJ-03-123 [5]; 0.03162 µM
  GR value: 0.727 GR
BSJ-03-123 [5]; 0.1 µM
  GR value: 0.515 GR
BSJ-03-123 [5]; 0.3162 µM
  GR value: 0.523 GR
BSJ-03-123 [5]; 1 µM
  GR value: 0.364 GR
BSJ-03-123 [5]; 3.162 µM
  GR value: 0.386 GR
BSJ-03-123 [5]; 10 µM
  GR value: 0.0116 GR
[6]; 0.001 µM
  GR value: 1.01 GR
[6]; 0.003162 µM
  GR value: 0.837 GR
[6]; 0.01 µM
  GR value: 0.806 GR
[6]; 0.03162 µM
  GR value: 0.594 GR
[6]; 0.1 µM
  GR value: 0.62 GR
[6]; 0.3162 µM
  GR value: 0.536 GR
[6]; 1 µM
  GR value: 0.577 GR
[6]; 3.162 µM
  GR value: 0.696 GR
[6]; 10 µM
  GR value: 0.274 GR
Neratinib/HKI272 [7]; 0.0003162 µM
  GR value: 0.989 GR
Neratinib/HKI272 [7]; 0.001 µM
  GR value: 0.784 GR
Neratinib/HKI272 [7]; 0.003162 µM
  GR value: -0.125 GR
Neratinib/HKI272 [7]; 0.01 µM
  GR value: -0.734 GR
Neratinib/HKI272 [7]; 0.03162 µM
  GR value: -0.825 GR
Neratinib/HKI272 [7]; 0.1 µM
  GR value: -0.86 GR
Neratinib/HKI272 [7]; 0.3162 µM
  GR value: -0.874 GR
Neratinib/HKI272 [7]; 1 µM
  GR value: -0.895 GR
Neratinib/HKI272 [7]; 3.162 µM
  GR value: -0.922 GR
[8]; 0.0001 µM
  GR value: 1.02 GR
[8]; 0.0003162 µM
  GR value: 0.963 GR
[8]; 0.001 µM
  GR value: 1.17 GR
[8]; 0.003162 µM
  GR value: 1.12 GR
[8]; 0.01 µM
  GR value: 0.918 GR
[8]; 0.03162 µM
  GR value: -0.569 GR
[8]; 0.1 µM
  GR value: -0.753 GR
[8]; 0.3162 µM
  GR value: -0.769 GR
[8]; 1 µM
  GR value: -0.75 GR
LEE011/Ribociclib [9]; 0.001 µM
  GR value: 0.773 GR
LEE011/Ribociclib [9]; 0.003162 µM
  GR value: 0.676 GR
LEE011/Ribociclib [9]; 0.01 µM
  GR value: 0.849 GR
LEE011/Ribociclib [9]; 0.03162 µM
  GR value: 0.637 GR
LEE011/Ribociclib [9]; 0.1 µM
  GR value: 0.674 GR
LEE011/Ribociclib [9]; 0.3162 µM
  GR value: 0.447 GR
LEE011/Ribociclib [9]; 1 µM
  GR value: 0.532 GR
LEE011/Ribociclib [9]; 3.162 µM
  GR value: 0.6 GR
LEE011/Ribociclib [9]; 10 µM
  GR value: 0.711 GR

## HTERT_HME1
Paclitaxel
  GR50, 72 h: 0.00317 µM
BSJ-03-123 [1]
  GR50, 72 h: 0.366 µM
INK128/MLN0128
  GR50, 72 h: 0.0335 µM
[10]
  GR50, 72 h: 0.199 µM
Neratinib/HKI272 [2]
  GR50, 72 h: 0.151 µM
Volasertib/BI6727
  GR50, 72 h: 0.0172 µM
LEE011/Ribociclib [3]
  GR50, 72 h: 1.2 µM
THZ531
  GR50, 72 h: 0.22 µM
[4]
  GR50, 72 h: 0.0011 µM
Pictilisib/GDC0941
  GR50, 72 h: 2.8 µM
Ceritinib/LDK378
  GR50, 72 h: 0.822 µM
Taselisib/GDC0032
  GR50, 72 h: 0.148 µM
Tivantinib/ARQ197
  GR50, 72 h: 0.0344 µM
YKL-5-124; 0.001 µM
  GR value: 0.41 GR
YKL-5-124; 0.003162 µM
  GR value: 0.245 GR
YKL-5-124; 0.01 µM
  GR value: 0.16 GR
YKL-5-124; 0.03162 µM
  GR value: 0.177 GR
YKL-5-124; 0.1 µM
  GR value: 0.0758 GR
YKL-5-124; 0.3162 µM
  GR value: 0.0849 GR
YKL-5-124; 1 µM
  GR value: 0.0535 GR
YKL-5-124; 3.162 µM
  GR value: -0.036 GR
YKL-5-124; 10 µM
  GR value: -0.144 GR
BSJ-03-123 [5]; 0.001 µM
  GR value: 0.903 GR
BSJ-03-123 [5]; 0.003162 µM
  GR value: 0.87 GR
BSJ-03-123 [5]; 0.01 µM
  GR value: 0.78 GR
BSJ-03-123 [5]; 0.03162 µM
  GR value: 0.635 GR
BSJ-03-123 [5]; 0.1 µM
  GR value: 0.702 GR
BSJ-03-123 [5]; 0.3162 µM
  GR value: 0.551 GR
BSJ-03-123 [5]; 1 µM
  GR value: 0.386 GR
BSJ-03-123 [5]; 3.162 µM
  GR value: 0.34 GR
BSJ-03-123 [5]; 10 µM
  GR value: -0.153 GR
[6]; 0.001 µM
  GR value: 1.05 GR
[6]; 0.003162 µM
  GR value: 0.987 GR
[6]; 0.01 µM
  GR value: 0.867 GR
[6]; 0.03162 µM
  GR value: 0.718 GR
[6]; 0.1 µM
  GR value: 0.588 GR
[6]; 0.3162 µM
  GR value: 0.433 GR
[6]; 1 µM
  GR value: 0.279 GR
[6]; 3.162 µM
  GR value: 0.136 GR
[6]; 10 µM
  GR value: 0.0346 GR
Neratinib/HKI272 [7]; 0.0003162 µM
  GR value: 1.07 GR
Neratinib/HKI272 [7]; 0.001 µM
  GR value: 1.09 GR
Neratinib/HKI272 [7]; 0.003162 µM
  GR value: 1.08 GR
Neratinib/HKI272 [7]; 0.01 µM
  GR value: 1.01 GR
Neratinib/HKI272 [7]; 0.03162 µM
  GR value: 0.89 GR
Neratinib/HKI272 [7]; 0.1 µM
  GR value: 0.57 GR
Neratinib/HKI272 [7]; 0.3162 µM
  GR value: 0.349 GR
Neratinib/HKI272 [7]; 1 µM
  GR value: 0.269 GR
Neratinib/HKI272 [7]; 3.162 µM
  GR value: 0.105 GR
[8]; 0.0001 µM
  GR value: 1.08 GR
[8]; 0.0003162 µM
  GR value: 1.07 GR
[8]; 0.001 µM
  GR value: 1.1 GR
[8]; 0.003162 µM
  GR value: 1.09 GR
[8]; 0.01 µM
  GR value: 0.754 GR
[8]; 0.03162 µM
  GR value: -0.268 GR
[8]; 0.1 µM
  GR value: -0.267 GR
[8]; 0.3162 µM
  GR value: -0.27 GR
[8]; 1 µM
  GR value: -0.28 GR
LEE011/Ribociclib [9]; 0.001 µM
  GR value: 0.864 GR
LEE011/Ribociclib [9]; 0.003162 µM
  GR value: 0.776 GR
LEE011/Ribociclib [9]; 0.01 µM
  GR value: 0.741 GR
LEE011/Ribociclib [9]; 0.03162 µM
  GR value: 0.737 GR
LEE011/Ribociclib [9]; 0.1 µM
  GR value: 0.623 GR
LEE011/Ribociclib [9]; 0.3162 µM
  GR value: 0.568 GR
LEE011/Ribociclib [9]; 1 µM
  GR value: 0.538 GR
LEE011/Ribociclib [9]; 3.162 µM
  GR value: 0.467 GR
LEE011/Ribociclib [9]; 10 µM
  GR value: 0.29 GR
